Data reported in US11572369B2, “Bicyclic pyridine compositions and methods of using the same for cancer therapy” (UNIVERSITY OF SOUTH CAROLINA, priority 2019, dated 2023).

What was measured:
Assay in all cases: KINOMEscan
Assay type in all cases: binding
Settings in all cases: 2000 nM
[1] = molecular target: T1, ABL1(E255K)-phosphorylated (Homo sapiens, UniProt P00519, E255K)
T1 construct: DNA label (qPCR read-out); purchased DiscoverX (KINOMEscan service)

[2] = molecular target: T2, ABL1(F317I)-nonphosphorylated (Homo sapiens, UniProt P00519, F317I)
T2 construct: DNA label (qPCR read-out); purchased DiscoverX (KINOMEscan service)

[3] = molecular target: ABL1(Q252H)-phosphorylated (Homo sapiens, UniProt P00519, Q252H)
CAMK4 = molecular target: T3, CAMK4 (Homo sapiens, UniProt Q16566)
T3 construct: DNA label (qPCR read-out); purchased KINOMEscan (ScanMAX panel service)
T3 sequence (Q16566 whole entry): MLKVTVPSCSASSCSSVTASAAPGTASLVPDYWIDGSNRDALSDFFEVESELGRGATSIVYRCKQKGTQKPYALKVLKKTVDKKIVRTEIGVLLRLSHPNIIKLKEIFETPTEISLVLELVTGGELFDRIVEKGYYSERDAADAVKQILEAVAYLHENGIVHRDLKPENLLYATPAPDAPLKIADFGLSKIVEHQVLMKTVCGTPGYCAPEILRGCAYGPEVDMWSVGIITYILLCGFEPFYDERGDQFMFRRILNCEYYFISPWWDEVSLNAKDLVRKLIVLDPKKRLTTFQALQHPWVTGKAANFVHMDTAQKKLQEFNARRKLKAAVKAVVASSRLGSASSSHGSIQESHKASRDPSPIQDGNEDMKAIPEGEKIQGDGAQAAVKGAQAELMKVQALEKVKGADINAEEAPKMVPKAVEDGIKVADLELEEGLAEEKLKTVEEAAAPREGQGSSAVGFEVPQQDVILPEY

CDK3 = molecular target: T4, CDK3 (Homo sapiens, UniProt Q00526)
T4 construct: purchased DiscoverX (KINOMEscan service)

CDK4 = molecular target: T5, CDK4 (Homo sapiens, UniProt P11802)
T5 construct: purchased DiscoverX (KINOMEscan service)

CDK7 = molecular target: T6, CDK7 (Homo sapiens, UniProt P50613)
T6 construct: purchased DiscoverX (KINOMEscan service)

CDK9 = molecular target: T7, CDK9 (Homo sapiens, UniProt P50750)
T7 construct: purchased DiscoverX (KINOMEscan service)

CSNK1G1 = molecular target: T8, CSNK1G1 (Homo sapiens, UniProt Q9HCP0)
T8 construct: DNA label; purchased DiscoveRx (KINOMEscan scanMAX panel)
T8 sequence (Q9HCP0 whole entry): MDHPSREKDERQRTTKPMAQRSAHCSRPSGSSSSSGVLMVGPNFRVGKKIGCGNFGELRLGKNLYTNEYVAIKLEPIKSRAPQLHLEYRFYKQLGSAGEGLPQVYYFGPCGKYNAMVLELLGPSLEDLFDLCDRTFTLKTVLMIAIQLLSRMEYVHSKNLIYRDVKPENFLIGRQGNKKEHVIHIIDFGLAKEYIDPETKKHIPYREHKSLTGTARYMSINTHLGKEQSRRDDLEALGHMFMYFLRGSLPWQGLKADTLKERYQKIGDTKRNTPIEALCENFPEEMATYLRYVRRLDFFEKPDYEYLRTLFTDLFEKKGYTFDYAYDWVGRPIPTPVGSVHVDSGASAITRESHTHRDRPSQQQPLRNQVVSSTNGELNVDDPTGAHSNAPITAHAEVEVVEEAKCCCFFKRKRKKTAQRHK

CTK = molecular target: T9, CTK (Homo sapiens, UniProt P42679)
T9 construct: DNA label; purchased DiscoveRx (KINOMEscan scanMAX panel)

DDR2 = molecular target: T10, DDR2 (Homo sapiens, UniProt Q16832)
T10 construct: DNA label (qPCR read-out); purchased KINOMEscan (DiscoveRx) panel
T10 sequence (Q16832 22-855): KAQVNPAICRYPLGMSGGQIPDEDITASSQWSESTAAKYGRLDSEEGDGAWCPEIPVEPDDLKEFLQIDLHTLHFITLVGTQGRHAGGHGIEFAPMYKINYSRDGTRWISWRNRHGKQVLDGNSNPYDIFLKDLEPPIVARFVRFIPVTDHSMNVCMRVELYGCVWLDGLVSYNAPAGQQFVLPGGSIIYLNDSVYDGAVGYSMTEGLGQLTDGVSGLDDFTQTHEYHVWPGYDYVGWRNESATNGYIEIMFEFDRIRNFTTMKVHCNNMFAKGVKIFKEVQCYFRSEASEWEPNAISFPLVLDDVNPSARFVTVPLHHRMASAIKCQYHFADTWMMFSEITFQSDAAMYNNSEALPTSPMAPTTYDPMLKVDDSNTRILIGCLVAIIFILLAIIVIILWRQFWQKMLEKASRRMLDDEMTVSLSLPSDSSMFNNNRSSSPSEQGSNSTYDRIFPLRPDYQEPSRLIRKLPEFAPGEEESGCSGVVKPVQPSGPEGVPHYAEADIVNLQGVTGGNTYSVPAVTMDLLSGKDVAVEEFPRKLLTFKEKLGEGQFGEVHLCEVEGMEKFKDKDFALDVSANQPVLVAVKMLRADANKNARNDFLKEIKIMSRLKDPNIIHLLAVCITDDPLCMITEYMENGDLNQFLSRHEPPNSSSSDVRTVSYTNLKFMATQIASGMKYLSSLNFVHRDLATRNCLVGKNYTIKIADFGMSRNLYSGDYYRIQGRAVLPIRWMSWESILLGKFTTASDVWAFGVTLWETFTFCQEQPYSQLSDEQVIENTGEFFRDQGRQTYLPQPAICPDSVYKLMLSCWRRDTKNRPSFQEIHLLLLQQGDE

EGFR(L861Q) = molecular target: T11, EGFR(L861Q) (Homo sapiens, UniProt P00533, L861Q)
T11 construct: purchased DiscoveRx (KINOMEscan scanMAX panel)

EGFR(T790M) = molecular target: T12, EGFR(T790M) (Homo sapiens, UniProt P00533, T790M)
T12 construct: purchased DiscoveRx (KINOMEscan scanMAX panel)

FLT3(R834Q) = molecular target: T13, FLT3(R834Q) (Homo sapiens, UniProt P36888, R834Q)
T13 construct: purchased KINOMEscan (DiscoveRx)

HUNK = molecular target: T14, HUNK (Homo sapiens, UniProt P57058)
T14 construct: DNA label (qPCR read-out); purchased KINOMEscan (DiscoveRx) ScanMAX panel

IRAK4 = molecular target: T15, IRAK4 (Homo sapiens, UniProt Q9NWZ3)
T15 construct: DNA label (qPCR read-out); purchased KINOMEscan (DiscoveRx) ScanMAX panel

[4] = molecular target: T16, JAK3(JH1domain-catalytic) (Homo sapiens, UniProt P52333)
T16 construct: JAK3(JH1domain-catalytic); DNA label (for qPCR read-out); purchased DiscoveRx (KINOMEscan scanMAX panel)

KIT(V559D, V654A) = molecular target: T17, KIT(V559D, V654A) (Homo sapiens, UniProt P10721, V559D/V654A)
T17 construct: purchased KINOMEscan (DiscoveRx) panel service
T17 sequence (P10721 26-976 V559D/V654A): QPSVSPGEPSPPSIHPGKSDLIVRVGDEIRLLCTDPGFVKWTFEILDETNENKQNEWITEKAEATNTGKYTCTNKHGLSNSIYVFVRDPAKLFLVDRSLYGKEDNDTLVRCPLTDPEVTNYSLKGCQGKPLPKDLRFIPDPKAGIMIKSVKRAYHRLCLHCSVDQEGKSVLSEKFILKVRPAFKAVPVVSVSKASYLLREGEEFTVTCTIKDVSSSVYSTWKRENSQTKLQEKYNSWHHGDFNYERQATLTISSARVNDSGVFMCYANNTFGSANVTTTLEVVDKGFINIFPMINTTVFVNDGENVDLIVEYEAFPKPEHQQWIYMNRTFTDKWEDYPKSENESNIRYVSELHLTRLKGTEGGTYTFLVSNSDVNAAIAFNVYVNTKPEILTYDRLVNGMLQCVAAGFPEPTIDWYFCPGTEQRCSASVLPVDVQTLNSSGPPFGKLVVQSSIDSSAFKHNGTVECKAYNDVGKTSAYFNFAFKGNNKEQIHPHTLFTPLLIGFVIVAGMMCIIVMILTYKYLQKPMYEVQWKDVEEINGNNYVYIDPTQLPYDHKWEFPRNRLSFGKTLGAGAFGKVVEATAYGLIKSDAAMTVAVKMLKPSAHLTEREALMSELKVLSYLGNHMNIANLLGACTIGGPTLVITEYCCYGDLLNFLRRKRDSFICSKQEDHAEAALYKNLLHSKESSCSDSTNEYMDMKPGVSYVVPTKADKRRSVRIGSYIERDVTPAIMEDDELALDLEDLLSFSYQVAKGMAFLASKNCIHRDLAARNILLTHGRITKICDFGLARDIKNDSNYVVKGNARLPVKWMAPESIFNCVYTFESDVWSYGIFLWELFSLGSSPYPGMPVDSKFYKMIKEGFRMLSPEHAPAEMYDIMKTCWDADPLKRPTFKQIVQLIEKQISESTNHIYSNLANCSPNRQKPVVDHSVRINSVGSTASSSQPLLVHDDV

NEK4 = molecular target: T18, NEK4 (Homo sapiens, UniProt P51957)
T18 construct: DNA label (qPCR read-out); purchased KINOMEscan (ScanMAX panel service)

PFTK1 = molecular target: T19, PFTK1 (Homo sapiens, UniProt O94921)
T19 construct: DNA label (for qPCR read-out); purchased DiscoveRx (KINOMEscan scanMAX service)

PHKG2 = molecular target: T20, PHKG2 (Homo sapiens, UniProt P15735)
T20 construct: DNA label (for qPCR read-out); purchased DiscoveRx (KINOMEscan scanMAX service)

PIK3CA(E545K) = molecular target: T21, PIK3CA(E545K) (Homo sapiens, UniProt P42336, E545K)
T21 construct: DNA label; purchased DiscoveRx (KINOMEscan scanMAX panel)

PIK3CA(H1047L) = molecular target: T22, PIK3CA(H1047L) (Homo sapiens, UniProt P42336, H1047L)
T22 construct: DNA label; purchased DiscoveRx (KINOMEscan scanMAX panel)

PIK3CB = molecular target: T23, PIK3CB (Homo sapiens, UniProt P42338)
T23 construct: DNA label; purchased DiscoveRx (KINOMEscan scanMAX panel)

PIKFYVE = molecular target: T24, PIKFYVE (Homo sapiens, UniProt Q9Y2I7)
T24 construct: DNA label; purchased DiscoveRx (KINOMEscan scanMAX panel)

RIPK1 = molecular target: T25, RIPK1 (Homo sapiens, UniProt Q13546)
T25 construct: DNA label (qPCR read-out); purchased DiscoveRx (KINOMEscan ScanMAX panel)
T25 sequence (Q13546 whole entry): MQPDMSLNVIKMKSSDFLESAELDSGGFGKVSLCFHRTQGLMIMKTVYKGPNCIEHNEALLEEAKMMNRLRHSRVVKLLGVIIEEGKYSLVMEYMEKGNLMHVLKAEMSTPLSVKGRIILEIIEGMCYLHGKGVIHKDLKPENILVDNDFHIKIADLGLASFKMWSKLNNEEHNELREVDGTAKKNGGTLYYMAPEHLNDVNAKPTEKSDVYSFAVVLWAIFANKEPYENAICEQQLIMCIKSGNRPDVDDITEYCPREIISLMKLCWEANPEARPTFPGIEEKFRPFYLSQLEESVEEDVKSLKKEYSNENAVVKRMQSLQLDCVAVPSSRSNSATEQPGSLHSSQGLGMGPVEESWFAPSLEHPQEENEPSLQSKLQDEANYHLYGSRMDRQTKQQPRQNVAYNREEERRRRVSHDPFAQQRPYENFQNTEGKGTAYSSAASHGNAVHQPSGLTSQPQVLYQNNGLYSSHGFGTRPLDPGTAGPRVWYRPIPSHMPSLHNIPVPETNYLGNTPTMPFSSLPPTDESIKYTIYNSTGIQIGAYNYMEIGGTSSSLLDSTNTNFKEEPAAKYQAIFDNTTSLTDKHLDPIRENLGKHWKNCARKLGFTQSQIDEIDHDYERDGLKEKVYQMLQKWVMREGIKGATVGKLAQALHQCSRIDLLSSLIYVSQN

ROCK1 = molecular target: T26, ROCK1 (Homo sapiens, UniProt Q13464)
T26 construct: DNA label (qPCR read-out); purchased DiscoveRx (KINOMEscan ScanMAX panel)

SLK = molecular target: T27, SLK (Homo sapiens, UniProt Q9H2G2)
T27 construct: purchased KINOMEscan (DiscoveRx)

SRPK2 = molecular target: T28, SRPK2 (Homo sapiens, UniProt P78362)
T28 construct: purchased KINOMEscan (DiscoveRx)

STK16 = molecular target: T29, STK16 (Homo sapiens, UniProt O75716)
T29 construct: DNA label (for qPCR read-out); purchased DiscoveRx (KINOMEscan scanMAX panel, contract assay)
T29 sequence (O75716 whole entry): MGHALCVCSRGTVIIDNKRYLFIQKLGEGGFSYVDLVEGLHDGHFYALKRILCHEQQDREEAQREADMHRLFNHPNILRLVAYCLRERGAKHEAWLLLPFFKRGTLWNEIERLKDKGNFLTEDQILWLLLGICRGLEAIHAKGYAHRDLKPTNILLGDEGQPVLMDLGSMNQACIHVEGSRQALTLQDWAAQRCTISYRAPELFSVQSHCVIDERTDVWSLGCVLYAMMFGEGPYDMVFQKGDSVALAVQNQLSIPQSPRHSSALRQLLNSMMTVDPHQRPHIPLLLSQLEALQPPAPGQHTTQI

STK35 = molecular target: T30, STK35 (Homo sapiens, UniProt Q8TDR2)
T30 construct: DNA label (for qPCR read-out); purchased DiscoveRx (KINOMEscan scanMAX panel, contract assay)
T30 sequence (Q8TDR2 whole entry): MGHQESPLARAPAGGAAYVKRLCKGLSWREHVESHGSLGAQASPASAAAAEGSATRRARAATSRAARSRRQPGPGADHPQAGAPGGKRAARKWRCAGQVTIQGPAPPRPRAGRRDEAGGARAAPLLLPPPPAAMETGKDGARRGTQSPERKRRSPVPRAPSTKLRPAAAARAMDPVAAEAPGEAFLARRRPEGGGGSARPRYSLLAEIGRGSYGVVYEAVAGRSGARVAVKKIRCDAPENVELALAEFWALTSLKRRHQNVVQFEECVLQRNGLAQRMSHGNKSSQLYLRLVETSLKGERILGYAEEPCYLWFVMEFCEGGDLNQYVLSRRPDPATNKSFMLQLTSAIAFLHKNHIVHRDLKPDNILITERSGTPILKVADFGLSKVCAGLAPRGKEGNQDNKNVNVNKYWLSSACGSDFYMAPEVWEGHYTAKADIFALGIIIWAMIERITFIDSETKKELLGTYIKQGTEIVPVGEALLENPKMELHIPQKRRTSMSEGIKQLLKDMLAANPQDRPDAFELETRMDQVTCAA

TTK = molecular target: T31, TTK (Homo sapiens, UniProt P33981)
T31 construct: DNA label (for qPCR read-out); purchased DiscoveRx (KINOMEscan scanMAX panel)
T31 sequence (P33981 whole entry): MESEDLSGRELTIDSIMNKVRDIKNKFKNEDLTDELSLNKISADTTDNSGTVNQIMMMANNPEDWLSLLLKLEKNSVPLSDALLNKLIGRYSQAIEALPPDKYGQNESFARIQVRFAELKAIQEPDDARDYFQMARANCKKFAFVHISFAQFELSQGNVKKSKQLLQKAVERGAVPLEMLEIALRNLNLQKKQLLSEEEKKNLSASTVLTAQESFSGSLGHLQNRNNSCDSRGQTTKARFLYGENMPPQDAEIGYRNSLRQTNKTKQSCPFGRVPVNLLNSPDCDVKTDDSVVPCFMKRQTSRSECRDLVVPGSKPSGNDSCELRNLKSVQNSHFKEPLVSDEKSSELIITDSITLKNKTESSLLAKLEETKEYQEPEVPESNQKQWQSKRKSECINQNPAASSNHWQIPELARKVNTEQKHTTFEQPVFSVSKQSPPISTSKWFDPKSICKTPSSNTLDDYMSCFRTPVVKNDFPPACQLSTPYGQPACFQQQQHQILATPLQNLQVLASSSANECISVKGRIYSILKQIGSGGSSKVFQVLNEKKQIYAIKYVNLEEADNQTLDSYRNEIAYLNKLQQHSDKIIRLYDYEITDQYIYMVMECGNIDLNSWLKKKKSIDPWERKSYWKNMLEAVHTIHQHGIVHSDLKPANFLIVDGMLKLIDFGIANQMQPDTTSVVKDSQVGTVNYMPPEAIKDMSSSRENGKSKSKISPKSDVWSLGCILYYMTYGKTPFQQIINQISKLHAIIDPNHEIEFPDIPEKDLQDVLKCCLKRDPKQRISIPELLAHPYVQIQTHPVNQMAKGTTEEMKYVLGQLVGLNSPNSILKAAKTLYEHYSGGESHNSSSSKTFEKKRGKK

ULK3 = molecular target: T32, ULK3 (Homo sapiens, UniProt Q6PHR2)
T32 construct: DNA label (for qPCR read-out); purchased DiscoveRx (KINOMEscan scanMAX panel)

VEGFR2 = molecular target: T33, VEGFR2 (Homo sapiens, UniProt P35968)
T33 construct: DNA label (for qPCR read-out); purchased DiscoveRx (KINOMEscan scanMAX panel)

WNK4 = molecular target: T34, WNK4 (Homo sapiens, UniProt Q96J92)
T34 construct: purchased KINOMEscan (DiscoveRx) panel service

| Compound | % Ctrl [1] [% Ctrl] | % Ctrl [2] [% Ctrl] | % Ctrl [3] [% Ctrl] | % Ctrl (CAMK4) [% Ctrl] | % Ctrl (CDK3) [% Ctrl] | % Ctrl (CDK4) [% Ctrl] | % Ctrl (CDK7) [% Ctrl] | % Ctrl (CDK9) [% Ctrl] | % Ctrl (CSNK1G1) [% Ctrl] | % Ctrl (CTK) [% Ctrl] | % Ctrl (DDR2) [% Ctrl] | % Ctrl (EGFR(L861Q)) [% Ctrl] | % Ctrl (EGFR(T790M)) [% Ctrl] | % Ctrl (FLT3(R834Q)) [% Ctrl] | % Ctrl (HUNK) [% Ctrl] | % Ctrl (IRAK4) [% Ctrl] | % Ctrl [4] [% Ctrl] | % Ctrl (KIT(V559D, V654A)) [% Ctrl] | % Ctrl (NEK4) [% Ctrl] | % Ctrl (PFTK1) [% Ctrl] | other results |
| --- | --- | --- | --- | --- | --- | --- | --- | --- | --- | --- | --- | --- | --- | --- | --- | --- | --- | --- | --- | --- | --- |
| [2H]C([2H])([2H])N(C(=O)c1ccc(N2CCCN(c3ccnc4sc(C(N)=O)c(N)c34)CC2)cc1)C([2H])([2H])[2H] [15u_D6, 3-amino-4-(4-(4-(bis(methyl-d3)carbamoyl)phenyl)-1,4-diazepan-1-yl)thieno[2,3-b]pyridine-2-carboxamide] | 82 | 93 | 75 | 79 | 97 | 71 | 78 | 100 | 80 | 100 | 52 | 100 | 87 | 68 | 100 | 78 | 80 | 100 | 95 | 100 | % Ctrl (PHKG2): 83 % Ctrl; % Ctrl (PIK3CA(E545K)): 91 % Ctrl; % Ctrl (PIK3CA(H1047L)): 80 % Ctrl; % Ctrl (PIK3CB): 95 % Ctrl; % Ctrl (PIKFYVE): 98 % Ctrl; % Ctrl (RIPK1): 100 % Ctrl; % Ctrl (ROCK1): 67 % Ctrl; % Ctrl (SLK): 54 % Ctrl; % Ctrl (SRPK2): 100 % Ctrl; % Ctrl (STK16): 87 % Ctrl; % Ctrl (STK35): 93 % Ctrl; % Ctrl (TTK): 80 % Ctrl; % Ctrl (ULK3): 79 % Ctrl; % Ctrl (VEGFR2): 84 % Ctrl; % Ctrl (WNK4): 98 % Ctrl |
| CN(C)C(=O)c1ccc(N2CCCN(c3ccnc4sc(C(N)=O)c(N)c34)CC2)cc1 [15u, 3-amino-4-(4-(4-(dimethylcarbamoyl)phenyl)-1,4-diazepan-1-yl)thieno[2,3-b]pyridine-2-carboxamide] | 100 | 100 | 94 | 96 | 92 | 73 | 100 | 66 | 90 | 92 | 80 | 78 | 98 | 100 | 99 | 89 | 83 | 100 | 100 | 96 | % Ctrl (PHKG2): 86 % Ctrl; % Ctrl (PIK3CA(E545K)): 96 % Ctrl; % Ctrl (PIK3CA(H1047L)): 94 % Ctrl; % Ctrl (PIK3CB): 100 % Ctrl; % Ctrl (PIKFYVE): 91 % Ctrl; % Ctrl (RIPK1): 99 % Ctrl; % Ctrl (ROCK1): 77 % Ctrl; % Ctrl (SLK): 56 % Ctrl; % Ctrl (SRPK2): 93 % Ctrl; % Ctrl (STK16): 80 % Ctrl; % Ctrl (STK35): 87 % Ctrl; % Ctrl (TTK): 83 % Ctrl; % Ctrl (ULK3): 96 % Ctrl; % Ctrl (VEGFR2): 67 % Ctrl; % Ctrl (WNK4): 60 % Ctrl |
